# Source: paper PMC4700511 (Biochemistry, 2015)
# Assays:
# [1] = test system: E. coli DH10B pBCSK(−) producing R228Q; assay: MIC by agar dilution, E. coli DH10B pBCSK; assay type: cell-based; settings: Escherichia coli
# [2] = test system: E. coli DH10B pBCSK(−) producing R228Y; assay: MIC by agar dilution, E. coli DH10B pBCSK; assay type: cell-based; settings: Escherichia coli
# [3] = test system: E. coli DH10B pBCSK(−) producing R228K; assay: MIC by agar dilution, E. coli DH10B pBCSK; assay type: cell-based; settings: Escherichia coli
# [4] = test system: E. coli DH10B pBCSK(−) producing R228P; assay: MIC by agar dilution, E. coli DH10B pBCSK; assay type: cell-based; settings: Escherichia coli
# [5] = test system: E. coli DH10B pBCSK(−) producing VIM-2 (228R); assay: MIC by agar dilution, E. coli DH10B pBCSK; assay type: cell-based; settings: Escherichia coli
# [6] = test system: E. coli DH10B pBCSK(−) producing R228X (other variants); assay: MIC by agar dilution, E. coli DH10B pBCSK; assay type: cell-based; settings: Escherichia coli, R228X: range of MIC values of the other variants; MHA
# [7] = test system: E. coli DH10B pBCSK(−) producing R228M; assay: MIC by agar dilution, E. coli DH10B pBCSK; assay type: cell-based; settings: Escherichia coli
# E. coli pBC SK(−) = assay: MIC by agar dilution, E. coli DH10B with empty pBC SK; assay type: cell-based; settings: Escherichia coli
# [8] = test system: E. coli DH10B pBCSK(−) producing VIM-24 (R228L); assay: MIC by agar dilution, E. coli DH10B pBCSK; assay type: cell-based; settings: Escherichia coli
# VIM-24 [9] = biological target: T1, VIM-24 (Escherichia coli, UniProt Q5U7L7, R205L); assay: BTZ inhibition kinetics of nitrocefin hydrolysis by VIM-24; assay type: biochemical, Klebsiella pneumoniae
# VIM-2 = VIM-2 (Escherichia coli, UniProt Q5U7L7); assay: BTZ inhibition kinetics of nitrocefin hydrolysis by VIM-2; assay type: biochemical, P. aeruginosa
# VIM-24 [10] = biological target: T1, VIM-24; assay type: biochemical, Klebsiella pneumoniae; settings: VIM-24; substrate hydrolysis, 10 mM HEPES pH 7.5, 25 °C
# [11] = test system: VIM-24-producing K. pneumoniae; assay: Imipenem MIC of the clinical isolate, VIM-24-producing K. pneumoniae; assay type: cell-based; settings: Klebsiella pneumoniae, read-out: imipenem MIC, VIM-24-producing K. pneumoniae
# [12] = test system: VIM-2-producing P. aeruginosa; assay: Imipenem MIC of the clinical isolate, VIM-2-producing P. aeruginosa; assay type: cell-based, Pseudomonas aeruginosa
# [13] = overall dissociation constant from vs, slow binding model
# [14] = rate constant for formation of E*I
SMILES,MIC ([1]; MHA) [µg/mL],MIC ([2]; MHA) [µg/mL],MIC ([3]; MHA) [µg/mL],MIC ([4]; MHA) [µg/mL],MIC ([5]; MHA) [µg/mL],MIC [6] [µg/mL],MIC ([7]; MHA) [µg/mL],MIC (E. coli pBC SK(−); MHA) [µg/mL],MIC ([8]; MHA) [µg/mL],kcat (VIM-24 [10]) [s⁻¹],other results
C[C@H]1[C@H](NC(=O)/C(=N\OC(C)(C)C(=O)O)c2csc(N)n2)C(=O)N1S(=O)(=O)O [aztreonam],≤ 0.125,≤ 0.125,≤ 0.125,≤ 0.125,≤ 0.125,≤ 0.125,≤ 0.125,≤ 0.125,≤ 0.125,,
O=C(O)[C@H]1CS[C@@H]2CS[C@@H](CS)N12 [D-CS319],,,,,,,,,,,Ki (VIM-24 [9]; [13]): 640 ± 10 nM; k−2 (VIM-24 [9]; rate constant for breakdown of E*I): (0.004 ± 1) × 10^−3 s^−1; k2 (VIM-24 [9]; [14]): (0.07 ± 4) × 10^−3 s^−1; Ki (VIM-2; [13]): 180 ± 20 nM; k2 (VIM-2; [14]): (0.01 ± 1) × 10^−3 s^−1
CO/N=C(\C(=O)N[C@@H]1C(=O)N2C(C(=O)O)=C(CSc3nc(=O)c(=O)[nH]n3C)CS[C@H]12)c1csc(N)n1 [ceftriaxone],32,16,1,0.5,8,1 to 16,16,0.5,8,,
CC1(C)S[C@@H]2[C@H](NC(=O)[C@H](N)c3ccccc3)C(=O)N2[C@H]1C(=O)O [ampicillin],1020,1020,32,32,512,64 to 512,1020,4,512,,
C[C@@H](O)[C@H]1C(=O)N2C(C(=O)O)=C(SCCN=CN)C[C@H]12 [imipenem],4,1,0.25,0.5,0.5,0.25 to 1,2,0.25,0.5,8.8 ± 0.3,"MIC ([1]; MHA + 5 μM EDTA): 4 µg/mL; MIC ([1]; MHA + 250 μM Zn^2+): > 4 µg/mL; MIC ([2]; MHA + 5 μM EDTA): 1 µg/mL; MIC ([2]; MHA + 250 μM Zn^2+): 1 µg/mL; MIC ([3]; MHA + 5 μM EDTA): 0.25 µg/mL; MIC ([3]; MHA + 250 μM Zn^2+): 0.25 µg/mL; MIC ([4]; MHA + 5 μM EDTA): ≤ 0.125 µg/mL; MIC ([4]; MHA + 250 μM Zn^2+): 0.25 µg/mL; MIC ([5]; MHA + 5 μM EDTA): 0.5 µg/mL; MIC ([5]; MHA + 250 μM Zn^2+): 1 µg/mL; Km (VIM-24 [10]): 5 ± 0.7 µM; MIC ([7]; MHA + 5 μM EDTA): 1 µg/mL; MIC ([7]; MHA + 250 μM Zn^2+): 4 µg/mL; MIC (E. coli pBC SK(−); MHA + 5 μM EDTA): ≤ 0.125 µg/mL; MIC (E. coli pBC SK(−); MHA + 250 μM Zn^2+): 0.25 µg/mL; MIC [11]: 2 µg/mL; MIC ([8]; MHA + 5 μM EDTA): 0.5 µg/mL; MIC ([8]; MHA + 250 μM Zn^2+): 1 µg/mL; MIC ([12]; Pseudomonas aeruginosa, read-out: imipenem MIC): 32 µg/mL; imipenem MIC ([12]; VIM-2 harboring P. aeruginosa clinical isolate): 32 µg/mL"
O=C(Cc1cccs1)N[C@@H]1C(=O)N2C(C(=O)O)=C(/C=C/c3ccc([N+](=O)[O-])cc3[N+](=O)[O-])CS[C@H]12 [nitrocefin],,,,,,,,,,171 ± 4,
